Values quoted from earlier work, collected in patent US20040241258A1, “Insect repellent for humans and animals” (priority 2003, published 2004).

Conditions: in vivo

CCN(CC)C(=O)c1cccc(C)c1 [DEET, N, N-diethyl-meta-toulamide]
time remaining in the blood stream after use: 30 days
